Source: US10265303B2, “Hyperphenylalaninemia and treatments thereof” (BERGEN TEKNOLOGIOVERFØRING AS, priority 2015, dated 2019)
Where a chain is given by its changes, count along the chain named.

Legend:
R252W-PAH = target: T1, R252W-PAH (Homo sapiens, UniProt P00439, R252W); assay: PAH protein level and activity in HEK293 EBNA cells transiently expressing PKU mutant R252W; format: cell-based
T1 construct: expressed in transfected cells; host or cells: HEK293 EBNA, transient, pcDNA3-PAH
T1 sequence (P00439 1-452 R252W): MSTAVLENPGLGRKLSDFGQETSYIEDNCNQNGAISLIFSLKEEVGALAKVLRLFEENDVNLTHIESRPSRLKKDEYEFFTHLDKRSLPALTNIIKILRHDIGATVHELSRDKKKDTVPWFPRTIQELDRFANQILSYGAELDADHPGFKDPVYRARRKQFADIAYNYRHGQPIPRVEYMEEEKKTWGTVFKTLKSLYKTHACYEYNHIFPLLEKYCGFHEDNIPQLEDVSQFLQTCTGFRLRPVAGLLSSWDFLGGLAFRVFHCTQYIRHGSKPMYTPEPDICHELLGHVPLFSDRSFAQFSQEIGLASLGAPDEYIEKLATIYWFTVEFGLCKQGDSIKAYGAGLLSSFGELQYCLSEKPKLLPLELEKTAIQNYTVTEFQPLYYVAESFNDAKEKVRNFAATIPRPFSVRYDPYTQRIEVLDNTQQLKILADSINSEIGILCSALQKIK
Experimental: (§1) A similar assay was used to measure PAH activity in cells lysates using 1 mM L-Phe and 200 μM BH4 with 10 min reactions and about 20-90 μg of total protein. Free amino acids and contaminants of low molecular weight were previously removed from the extracts using Zebra Desalt Spin columns (Pierce Biotechnology).
(§2) For transient expression of WT and mutant PAH, HEK293 EBNA (Epstein-Barr virus) cells, with low endogenous PAH expression, were grown as above. Cells were grown for 19 h, when they were transfected transiently transfected with […] of pcDNA3-PAH vector (WT or mutant PAH constructs R261Q, R252W, I65T and R68S) using the Lipofectamine system (Life Technologies™) as described by the manufacturer. Compound 53, with and without BH2 (200 μM) was added after 5 h of transfection at 200 μM concentration in 1% DMSO, and further incubated for 24 h, at which time the cells were harvested and stored at −80° C. In all cases a parallel negative control with only 1% DMSO was included. Cell lysates were prepared as indicated above.
(§3) Western blot analyses were performed on either cell extracts from permanently expressing or transiently transfected HEK293 cell lysates after SDS-PAGE (10% acrylamide) with 5-10 μg total protein in each lane. […] Neomycin phosphotransferase II was used as a marker of the plasmid transfection efficiency, and GAPDH was used as loading controls. […]

human wild-type PAH [1] = target: T2, human wild-type PAH (Homo sapiens, UniProt P00439); assay: PAH activity in lysates of HEK293 cells permanently expressing human wild-type PAH; format: cell-based
T2 construct: expressed in transfected cells
T2 sequence (P00439 1-452): T1 sequence (P00439 1-452 R252W) with W252R
Experimental: (§4) Human embryonic kidney cells (HEK293; Life Technologies™) permanently expressing WT-hPAH, prepared with the Flp-In system (Life Technologies™) were kindly provided by Per Knappskog, Haukeland University Hospital. About 1 million cells were grown in DMEM medium containing 4.5 g/l glucose, 10% (v/v) fetal calf serum, 0.25 mg/ml gentamycine, 2 mM L-glutamine and 50 μg/ml hygromycin B, and after 24 h medium was changed and the test compounds were added at a concentration of 0.02 mg/ml (1% DMSO). Eight hours later, the cells were harvested, and the pellets frozen in dry ice and stored at −80° C. […] To prepare the cell extracts, the frozen cell pellets were thawed in TBS (+protease inhibitor) buffer and cells were homogenized with 0.1% TX-100, incubated 15 minutes at 4° C. and extracts were clarified by centrifugation 20000 g for 15 min at 4° C. Protein concentrations were normalized using a Direct Detect Spectrometer (Merck Millipore).
The 7 selected compounds as well as the first generation pharmacological chaperones (Compounds III and IV) were further analyzed in the presence and absence of BH2 (200 μM), added as precursor of BH4, to account for additive effects. […]
as §4, with “and the compounds were” for “and the test compounds were”, “concentration of 0.04 mg/ml (1%” for “concentration of 0.02 mg/ml (1%”, “for 15 minutes at 4°” for “for 15 min at 4°”

human wild-type PAH [2] = target: T2, human wild-type PAH; assay: PAH immunoreactive protein level (Western blot) in HEK293 cells permanently expressing human wild-type PAH; format: cell-based; details: 0.04 mg/ml (average 116.7 μM), 1% DMSO, 8 h
Experimental: as §4
The 7 selected compounds as well as the first generation pharmacological chaperones (Compounds III and IV) were further analyzed in the presence and absence of BH2 (200 μM), added as precursor of BH4, to account for additive effects. A higher concentration of compound was also used 0.04 mg/ml (average of 116.7 μM) at otherwise same experimental conditions.

R68S-PAH = R68S-PAH (Homo sapiens, UniProt P00439, R68S); details: 200 μM, 24 h, 1% DMSO
R68S-PAH, sequence (P00439 whole entry R68S): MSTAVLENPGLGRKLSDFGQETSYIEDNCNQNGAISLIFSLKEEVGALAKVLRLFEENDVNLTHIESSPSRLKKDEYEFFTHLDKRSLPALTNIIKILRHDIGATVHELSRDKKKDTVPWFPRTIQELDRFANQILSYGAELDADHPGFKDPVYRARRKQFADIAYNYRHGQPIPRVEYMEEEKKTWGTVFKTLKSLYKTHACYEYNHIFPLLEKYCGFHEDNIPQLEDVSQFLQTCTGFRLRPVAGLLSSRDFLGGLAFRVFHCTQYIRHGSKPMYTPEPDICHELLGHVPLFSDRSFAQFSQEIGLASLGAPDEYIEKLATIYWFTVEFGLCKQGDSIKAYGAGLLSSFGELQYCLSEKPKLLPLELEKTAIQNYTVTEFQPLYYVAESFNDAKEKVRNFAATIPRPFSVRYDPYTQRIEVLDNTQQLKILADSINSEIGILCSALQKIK
Experimental: as §1, §2, §3

- effect on mutant R252W (protein, activity) (R252W-PAH; 200 μM alone, 24 h, 1% DMSO): neither the compound or BH4 affected
- effect on PAH activity (FIG. 1A) (human wild-type PAH [1]; 0.04 mg/ml (average 116.7 μM), 1% DMSO, 8 h): very large stimulating effect
- PAH activity-cells (%) (human wild-type PAH [1]; 0.04 mg/ml compound, 1% DMSO, 8 h, Table 3): 148 ± 16%
- increase of hPAH activity with respect to the control (FIG. 6) (human wild-type PAH [1]; average compound concentration 144.9 μM, 1% DMSO, 8 h): around 40%
- effect on PAH activity together with BH2 (FIG. 1B) (human wild-type PAH [1]; compound average 116.7 μM plus BH2 200 μM): additive
- effect on PAH protein (FIG. 1A) (human wild-type PAH [2]): very large stimulating effect
- PAH activity, mutant R68S (R68S-PAH): An effect
SMILES: COc1cc(Cc2cnc(N)nc2N)cc(OC)c1OC [c53, trimethoprim]
- protein content, mutant R252W, compound and cofactor analogue together (R252W-PAH; Compound 53 200 μM plus BH2 200 μM, 24 h (FIG. 2D)): a little stimulation of the protein content
